This note sets out measurements from EP2999467B1, “USE OF A COMBINATION OF TWO COMPOUNDS FOR THE TREATMENT AND/OR PREVENTION OF BONE DISORDERS” (Institut National de la Recherche Agronomique (INRA), priority 2013, dated 2014).

In test [1] the test system is préostéoblastes primaires. Description: Mineralisation test (alizarin red staining of mineralised nodules). Format: cell-based, rats Wistar. The note with it: Rattus norvegicus, 408 h, 17 days of culture, read-out: minéralisation (nodules minéralisés) par rapport à la condition « AA+βGP seuls ». The text has this:
(§1) Les préostéoblastes primaires ont été isolés à partir de la calotte crânienne de rats Wistar nouveaux-nés par digestion enzymatique comme précédemment décrit [Declercq, H., Van den Vreken, N., De Maeyer, E., Verbeeck, R., Schacht, E., De Ridder, L., and Cornelissen, M. (2004). Isolation, proliferation and differentiation of osteoblastic cells to study cell/biomaterial interactions: comparison of different isolation techniques and source. Biomaterials 25, 757-68.]. Les précurseurs d'ostéoclastes RAW264.7 ont été obtenus auprès de l'ATCC (Manassas, VA, USA). Les préostéoblastes et les RAW264.7 ont été cultivés dans du milieu α-MEM (Invitrogen, Carlsbad, CA, USA) supplémenté avec 10% de SVF décomplémenté et de 100 unités/ml de pénicilline-streptomycine.
Les préostéoblastes primaires ont été ensemencés à 1,5 * 10^5 cellules par puit dans des plaques 12 puits traitées au collagène. Trente-six heures plus tard, les cellules ont été prétraitées avec du DMSO comme témoin ou de la fisétine (1 à 5 µM) pendant 12 heures, puis induites à se différentier avec 25 µg/ml d'acide ascorbique et 5 mM de bêta-glycérophosphate en présence de DMSO ou de fisétine (1 à 5 µM). Après 17 jours de culture avec un changement des milieux tous les 2 jours, les cellules ont été fixées avec de l'éthanol à 70% et les dépôts de calcium ont été colorés avec une solution à 40 mM d'alizarine rouge (pH 4,2). La zone et l'intensité des nodules ont été quantifiées en utilisant le logiciel ImageJ (http://rsb.info.nih.gov/ij/).

For test [2], the system named is perte osseuse induite par ovariectomie. Description: Ovariectomy-induced bone loss: trabecular bone mineral density of femur (CT). Type of test: in vivo, souris C57BL/6J. The settings on record: OVX mice, Fisétine 25mg/kg daily by gavage; OVX without fisetin -15%. Here is the method: Tout au long de l'étude, les animaux ont été logés dans un environnement contrôlé (12:12 h cycle lumière-obscurité, 20-22 ° C, 50-60% d'humidité relative, 1 souris par cage en plastique avec un accès libre à l'eau. Les souris C57BL/6J ont été livrées 2 semaines avant l'étude pour l'acclimatation à notre environnement sous régime standard semi-purifié. Pour toutes les expériences, les souris de 8 semaines (n=12/groupe) ont été gavées avec le véhicule (1% d'éthanol, 0,2% hydroxypropylcellulose dans de l'eau distillée) ou avec la fisétine (5 à 50 mg/kg dans le véhicule) pendant une semaine. Ensuite, pour l'expérience OVX, les souris ont été pseudo-opérées ou ovariectomisées bilatéralement et ont reçu quotidiennement par gavage le véhicule ou la fisétine pendant 4 semaines. A la fin de l'expérimentation, le sérum, les cornes utérines, les tibias et les fémurs ont été recueillis pour analyse. Pour l'expérience de perte osseuse induite par LPS, le véhicule (PBS) ou le LPS (sérotype 026: B6, 25mg/kg) ont été injectés par voie sous-cutanée au niveau de la calotte crânienne, une fois par semaine pendant 3 semaines sous anesthésie. Durant ces 3 semaines, les souris ont reçu soit le véhicule (1% d'éthanol, 0,2% hydroxypropylcellulose dans de l'eau distillée) soit la fisétine quotidiennement par gavage. […]

Another test relates to RAW264.7. Description: TRAP staining: RANKL-induced osteoclast differentiation, count of multinucleated TRAP+ cells. Type of test: cell-based.
Description: as §1
Pour la coloration TRAP, 60.000 cellules RAW264.7 ont été ensemencées dans des puits de plaques 12 puits pendant 12 heures puis traitées avec du DMSO/éthanol comme témoin ou de la fisétine (5 µM dans le DMSO) ou du DHA (50µM dans l'éthanol) ou la combinaison des deux (Fisétine 5 µM et DHA 50 µM) pendant 3 heures. Les cellules ont ensuite été induites à se différencier en présence de RANKL (50 ng/ml) avec du DMSO/éthanol ou de la fisétine (5 µM) ou du DHA (50 µM) ou la combinaison des deux (Fisétine 5 µM et DHA 50 µM) durant 4 jours avec un changement de milieux après 2 jours. De la BSA délipidée et sans endotoxines a été utilisée pour solubiliser le DHA avec un rapport 1/5 (BSA/DHA).
La coloration TRAP a été réalisée en utilisant le kit « leukocyte acid phosphatase » (Sigma-Aldrich) selon les recommandations du fournisseur après fixation des cellules. Les cellules TRAP+ multinucléées ont ensuite été comptées.

Structures are written as SMILES.

What is called inhibition is how much of the control response was suppressed. `O=c1c(O)c(-c2ccc(O)c(O)c2)oc2cc(O)ccc12` [Fisétine, 3,3',4',7-tétrahydroxyflavone]: the activation at 1 µM in test [1] (AA+βGP+Fisétine 1µM) was determined as 62%. Further, the activation at 5 µM in test [1] (AA+βGP+Fisétine 5µM) came out at 169%. For the same compound, the activation at 2.5 µM in test [1] (AA+βGP+Fisétine 2,5µM) is 105%. In addition, the “densité minérale osseuse (DMO trabéculaire) par rapport à la condition témoin « SH »” value in test [2] is given as -4%. Further, in the test with RAW264.7 (Mus musculus, RAW264.7, 96 h, Fisétine 5µM, RANKL 50 ng/ml, 4 days, vs RANKL condition, read-out: inhibition de l'induction par RANKL de la formation de cellules multinucléées TRAP+ (ostéoclastes)), the inhibition at 5 µM was 45%. Moreover, the “ostéoclastes/cm^2” value in the test with RAW264.7 (condition RANKL+Fisétine (5µM), RANKL alone 735+/-251) is 404+/-148 ostéoclastes/cm^2.
